Source: patent publication US6620424B1, “Process for producing glycolytic metabolism regulators” (Suntory Limited, priority 1998, dated 2003)

How the values were obtained:
[1] = animal studies and clinical trials; cited from earlier work
[2] = test system: streptozotocin-induced diabetes rats (male Wistar rats); assay: Evaluation of suppressive effect on blood glucose elevation in streptozotocin-induced diabetes rats; format: in vivo, rat
Source text: Streptozotocin is an antibiotic derived from Streptomyces achromogenes, one of […]. Its action of inducing insulin-dependent diabetes mellitus was reported for the first time in 1963 by Rakieten et al. (Rakieten N, Rakieten M L, Nadkarni M V, Cancer Chemother Rep 29:91-98, 1963). Since then, it has been used most commonly as a substance for inducing diabetes experimentally. The main mechanism of its diabetogenic action is ascribed to the destruction of P cells of the pancreas, thereby suppressing insulin secretion. In male Wistar rats (7-week-old), a solution of streptozotocin in 0.05 M citric acid-0.145 […] NaCl (pH 4.5) was administered into the caudal vein (50 mg/kg). The animals were individually reared, commencing immediately after administration of streptozotocin. After a lapse of 48 hours, the animals with blood glucose levels of 300 mg/dl or more were divided into a control group and an itaconic acid group (7 or 8 animals per group), and study was initiated. A rearing feed was given to the control group, and a rearing feed containing 1.38% of itaconic acid was given to the itaconic acid group, ad. lib. together with drinking water, and the animals were reared for 3 weeks.
During the 3-week rearing period, blood glucose, body weight, feed intake, and water intake were measured twice or 3 times weekly. Rats are nocturnal animals, and feeding mostly takes place at night. However, since their blood glucose fluctuates greatly depending on the elapsed time after eating, each measurement of blood glucose was made between 9:30 and 10:00 in the morning. Blood hemoglobin Alc was measured on the day after administration of streptozotocin and on the 19th day after start of the study. Hemoglobin Alc is hemoglobin having glucose attached thereto non-enzymatically, and is expressed as a percentage (%) of total hemoglobin. In humans, hemoglobin Alc is known to serve as an indicator of the mean value of blood glucose during the period from 1 to 3 months previously until blood sampling. In rats, the life of an erythrocyte is about half of that in humans, and hemoglobin Alc has been reported to reflect the mean value of blood glucose since 2 to 3 weeks previously.
The experiments were conducted in groups of 7 or 8 rats each, and the results were indicated as mean values±standard deviations. The blood glucose was expressed as changes in individual animals compared with the value found at the start of the study (grouping). The test for a significant difference was performed by the analysis of variance of data, followed by Student t-test. The level of significance was set at 0.05.

[3] = molecular target: T1, rat liver type F6P2kinase (Rattus norvegicus, UniProt P07953); assay: Inhibition by itaconic acid of F6P2kinase activity catalyzing synthesis of F26BP; format: biochemical; conditions: 0.5 mM itaconic acid; 0.4 mM F6P, 2 mM ATP, 30° C.; read-out: inhibitory activity on F6P2kinase
T1 construct: made in house; host or cells: Escherichia coli
Description: The gene for rat liver type F6P2kinase was incorporated into Escherichia coli and expressed. From the E. coli cells, rat liver type F6P2kinase was purified (K. Kitamura et al., J. Biol. Chem., Vol. 264, 9799-9806, 1989). The rat liver type F6P2kinase (1.25 μg) was reacted at 30° C. in a reaction solution containing 100 mM Tris-HCl (pH 7.5), 0.1 mM EDTA, 10 mM MgCl2, 2 mM ATP, 0.4 mM F6P, and 0 to 1.5 mM itaconic acid. After lapses of 2, 4 and 6 minutes, 10 μl of the reaction mixture was transferred into a test tube containing 90 μl of 50 mM NaOH, and heated for 1 minute at 90° C. to terminate the reaction. The amount of the resulting F26BP was measured by a change in absorbance due to oxidation of NADH upon subsequent addition of glycolytic pathway enzymes. That is, 10 μl of the reaction mixture after termination of the reaction was added to 1 ml of a reaction solution containing 50 mM HEPES (pH 7.3), 0.2 mM EDTA, 5 mM MgCl2, 1 mM F6P, 1 mM PPi, 15 mU PPi-F6P phosphotransferase, 0.15 mM NADH, 1 U aldolase, 1 U glycerol-3-phosphate dehydrogenase, and 10 U triose-phosphate isomerase. The amount of F26BP was measured by a decrease in the absorbance at 340 nm (Van Schaftingen et al., Eur. J. Biochem., Vol. 129, 191-195, 1982). The activity that converts the substrate F6P to 1 μmole F26BP over 1 minute at 30° C. is defined as 1 U. The results are shown in FIG. 1.

Male SD rats [4] = assay: Evaluation of the suppressive effect on blood glucose elevation in rats (glucose challenge); format: in vivo, rat
Description: Male SD rats (weighing 300 to 400 g), operated on for blood sampling cannulation into the femoral artery, were used. After an overnight fast, itaconic acid (500 mg/kg) was orally administered. Thirty minutes later, glucose (4 g/kg) was ingested, and changes in blood glucose were observed. In the control group, purified water, free of itaconic acid, was orally administered in the same volume. Experiments were conducted in groups of 4 rats each, and the results were indicated as mean values±standard deviations. The test for a significant difference was performed by the analysis of variance of data, followed by Student t-test. Differences were taken as significant when p values were less than 0.05 (*p<0.05, **p<0.01).

Male SD rats [5] = assay: Evaluation of preventive effect on obesity in rats (3 weeks, itaconic acid in drinking water); format: in vivo, rat
Description: Male SD rats (8-week-old) were individually reared, commencing immediately after arrival. After a week of acclimatization, the animals were divided into a control group and an itaconic acid group (8 animals per group), and reared for 3 weeks, with feed and drinking water of the itaconic acid concentration shown in [Table 1] being given ad lib.
During the 3-week rearing period, the body weight, the feed intake, and the water intake were measured daily or every other day. On the final day, the animal was placed on a 17-hour fast, the blood was sampled, and the plasma was analyzed for blood glucose, hepatic function, and lipid-related parameters. Furthermore, the weight of the livers, kidneys, fat around the kidneys, and fat around the intestines was measured. The experiments were conducted in groups of 8 rats each, and the results were indicated as mean values±standard deviations. The test for a significant difference was performed by the analysis of variance of data, followed by Student t-test. The level of significance was set at 0.05.
The plasma collected at completion of the experiments was measured for various biological parameters. […] The experiments were conducted in groups of 8 rats each, and the results were indicated as mean values±standard deviations. The test for a significant difference was performed by the analysis of variance of data, followed by Student t-test. The level of significance was set at 0.05.

[6] = at completion of 3 weeks, FIG. 5
[7] = at completion of 3 weeks, p<0.05, FIG. 5
[8] = plasma after 3 weeks, 17-hour fast, mean ± SD, n=8
[9] = plasma after 3 weeks, 17-hour fast, mean ± SD, n=8, P < 0.05 vs control

T1 sequence (P07953 whole entry): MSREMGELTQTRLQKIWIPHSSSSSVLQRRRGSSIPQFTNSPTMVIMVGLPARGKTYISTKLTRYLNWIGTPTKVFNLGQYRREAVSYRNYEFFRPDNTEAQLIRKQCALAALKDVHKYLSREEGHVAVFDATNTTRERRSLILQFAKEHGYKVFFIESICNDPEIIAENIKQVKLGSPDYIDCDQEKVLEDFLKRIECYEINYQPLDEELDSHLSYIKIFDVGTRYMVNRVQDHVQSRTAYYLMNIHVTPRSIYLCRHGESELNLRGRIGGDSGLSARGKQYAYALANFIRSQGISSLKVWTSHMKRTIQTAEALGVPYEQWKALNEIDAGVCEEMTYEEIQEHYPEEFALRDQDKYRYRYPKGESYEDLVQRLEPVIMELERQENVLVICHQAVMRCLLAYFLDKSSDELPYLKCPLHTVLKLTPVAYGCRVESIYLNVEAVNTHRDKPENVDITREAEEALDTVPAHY

OCC(CO)N[C@H]1C[C@](O)(CO)[C@@H](O)[C@H](O)[C@H]1O [voglibose]
rapid increases (peaks) in postprandial blood glucose [1]: suppressing rapid increases (peaks) in postprandial blood glucose

C=C(CC(=O)O)C(=O)O [itaconic acid]
rise in blood hemoglobin Alc ([2]; Day 19, compared with the control group, FIG. 11): significant curbing of the rise | body weight ([2]; feed containing 1.38% itaconic acid, 3 weeks, FIG. 8): not different between the groups | rise in blood glucose (change from start of study) ([2]; feed containing 1.38% itaconic acid, 3 weeks, from Day 1 onwards, p<0.05 on Days 5 and 15, FIG. 7): suppression of the rise in blood glucose was observed | feed intake ([2]; from about Day 5 onwards, compared with the control group, FIG. 9): decreases in feed intake were observed | inhibition at 500 µM [3]: ~30% | initial rapid increase in blood glucose after glucose challenge (Male SD rats [4]; itaconic acid 500 mg/kg orally 30 min before glucose 4 g/kg, 30 minutes after challenge, FIG. 6): significantly curbed | blood glucose late after glucose challenge (Male SD rats [4]; itaconic acid 500 mg/kg orally, after 180 minutes and 240 minutes, versus control group): significantly high | feed intake (Male SD rats [5]; 3-week period, compared with the control group, FIG. 3): decreases in the feed intake were observed | weight of the kidneys per 100 g of body weight (Male SD rats [5]; [6]): not different between the groups | weight of the livers per 100 g of body weight (Male SD rats [5]; [6]): not different between the groups | weight of fat around the intestines per 100 g of body weight (Male SD rats [5]; [7]): significantly decreased | weight of fat around the kidneys per 100 g of body weight (Male SD rats [5]; [7]): significantly decreased | weight gain (Male SD rats [5]; from Day 9 onwards, p<0.05 against the control group, FIG. 2): significant suppression of weight gain | ALP (Male SD rats [5]; [8]): 0.3 ± 0.1 IU/l | Free cholesterol (Male SD rats [5]; [8]): 12.2 ± 2.0 mg/dL | GOT (Male SD rats [5]; [8]): 65.0 ± 12.0 IU/l | GPT (Male SD rats [5]; [8]): 13.0 ± 2.5 IU/l | LDH (Male SD rats [5]; [8]): 276 ± 82 IU/l | Total bilirubin (Male SD rats [5]; [8]): 0.19 ± 0.02 mg/dL | Total cholesterol (Male SD rats [5]; [8]): 46.3 ± 7.1 mg/dL | Triglycerides (Male SD rats [5]; plasma after 3 weeks, 17-hour fast, mean ± SD, n=8, P < 0.01 vs control): 20.9 ± 2.8 mg/dL | Blood glucose (Male SD rats [5]; [9]): 149 ± 19 mg/dL | Free fatty acids (Male SD rats [5]; [9]): 199 ± 75 mg/dL
